# According to ChEMBL document CHEMBL5252585, “Structure optimization and discovery of novel compound for the treatment of insertion mutations within exon 20 of EGFR and HER2” (Bioorg Med Chem, 2023):
# Assays:
# [1] = Toxicity in BALB/c mouse harboring HER2-A775-G776 ins YVMA mutant implanted with mouse BaF3 cells assessed as change in body weight at 10 to 20 mg/kg, po administered once daily for 13 to 14 days; assay type: organism-based; conditions: in vivo, dose lower 10 mg/kg, time lower 13 day, dose upper 20 mg/kg, time upper 14 day
# BaF3 = assay: Antitumor activity against mouse BaF3 cells implanted in BALB/c mouse harboring HER2-A775-G776 ins YVMA mutant assessed as tumor growth inhibition at 10 mg/kg, po administered once daily for 13 to 14 days; assay type: functional; conditions: time 13-14 day, read-out: TGI
structure (smiles),measurement,setting,value
C=CC(=O)N1CCC(Oc2cc3c(Nc4cccc(Cl)c4F)ncnc3cc2O[C@H]2CCOC2)CC1,Activity,[1],Non-Toxic
same,inhibition in vivo at 10 mg/kg,BaF3,75%
